Patent US20150150935A1, “[…] RECEPTOR AGONISTS FOR REDUCING PAIN AND INFLAMMATION” (CARA THERAPEUTICS, INC., priority 2012, published 2015)

Assays:
[1] = tested on: patients post laparoscopic surgery; test: Adverse events in subjects treated with CR845 or placebo, Phase IIb trial; format: in vivo, human; settings: first 24 hours post laparoscopic surgery; all CR845 treated groups; FIG. 15
Protocol: Data are from a Phase IIb clinical trial in which subjects were administered CR845 or placebo. Generalized pruritus was distinguished from local pruritus events and shown separately in FIG. 15. Adverse events were lower in all CR845 treated patient groups as compared with placebo treated patients.

[2] = tested on: women after laparoscopic-assisted hysterectomy; settings: cited from earlier work
[3] = tested on: patients undergoing a laparoscopic hysterectomy; test: Phase 2 double-randomized placebo-controlled trial, CR845 dosed preoperatively and postoperatively, analgesic efficacy; format: in vivo, human
Protocol: This trial was a phase 2 multi-center, double-randomized, double-blind, placebo-controlled study was conducted to evaluate the analgesic efficacy and safety of intravenous CR845 dosed preoperatively and postoperatively in patients undergoing a laparoscopic hysterectomy. The trial was conducted under an investigational new drug application (IND) filed with the US Food and Drug Administration (FDA).
This phase 2 trial multi-center, double-randomized, double-blind, placebo-controlled study was conducted in 22 sites in the United States. All clinical procedures were approved by the relevant Institutional Review Board (IRB) in compliance with the applicable laws and regulations of the US. The study was initiated up to fourteen (14) days preoperatively and the in-hospital period was approximately twenty-four (24) hours for each patient and follow up was conducted within seven (7) days of discharge from the hospital.
The aim of this clinical trial was to evaluate the analgesic efficacy and safety of intravenous (IV) CR845 dosed preoperatively and postoperatively in female patients undergoing an elective laparoscopic hysterectomy. Secondary objectives were: 1. […] To evaluate the safety and tolerability of CR845.
This Phase 2, double-randomized, double-blind, placebo-controlled, parallel group study was conducted in approximately 200 female subjects, aged 18 to 65, across 22 US clinical sites. All subjects were administered a 15-minute IV infusion of 0.04 mg/kg CR845 or matching placebo before surgery in a 1:1 ratio. After surgery and upon reaching a pain intensity baseline level of at least 4 on a 10 cm visual analog scale (VAS), subjects were also re-randomized in a 1:1 ratio to receive a second IV infusion of either 0.04 mg/kg of CR845 or placebo. All doubly-randomized patients were thereby randomized to receive one of four possible treatment regimens: placebo-placebo, placebo-CR845, CR845-placebo, or CR845-CR845 (See FIG. 1). Pain intensity and pain relief scores were assessed up to 24 hours following the post-surgery infusion. Patients were allowed IV morphine for rescue at any point during the post-operative period, if requested.
The main efficacy endpoints were the total morphine consumption in the first 24 hours in patients who were re-randomized in the postoperative period and the efficacy of CR845 in reducing pain intensity including time specific VAS difference; summed pain intensity differences (SPIDs); area under the curve (AUC); pain relief; and the proportion of patients that were randomized to receive preoperative CR845 with no rescue medication postoperatively. The safety endpoints included the incidence of adverse events, physical examination, vital signs, 12-lead ECG, clinical laboratory evaluations, and cumulative fluid balance.

## CC(C)C[C@@H](NC(=O)[C@@H](Cc1ccccc1)NC(=O)[C@H](N)Cc1ccccc1)C(=O)N[C@H](CCCCN)C(=O)N1CCC(N)(C(=O)O)CC1 [CR845, D-Phe-D-Phe-D-Leu-D-Lys-[ω(4-aminopiperidine-4-carboxylic acid)]-OH]
[1]
  Adverse events (nausea, vomiting and pruritus) compared with placebo: lower
[2]; 0.04 mg/kg 15-minute IV infusion after surgery, first 16 hours post-infusion
  Reduction of morphine use versus placebo: 32%
[2]; 0.04 mg/kg IV after surgery, versus placebo
  Opioid side effects (vomiting, nausea and pruritis): significant reduction
[2]; 0.04 mg/kg IV after surgery
  Changes in clinical lab test results, vital signs, electrocardiograms, Ramsey sedation scale: no significant changes
[2]; administered after surgery
  Reduction of pain intensity: effective
  Safety and tolerability: safe and well tolerated
[2]; single intravenous dose after surgery
  Tolerability in comparison to other known kappa agonists: better tolerated
[3]; CR845-CR845 (0.04 mg/kg IV before and after surgery), first 24 hours, FIG. 2
  Reduction in summed pain intensity difference (SPID) pain score versus placebo only: more than twice the reduction
[3]; CR845-CR845 (before and after surgery), over 24 hours, FIG. 3
  Reduction in pain intensity difference (PID) pain score versus placebo only: twice the reduction
[3]; CR845 before and after surgery, among four groups
  Pain relief as judged by PID score: highest pain intensity difference
[3]; CR845 pretreatment groups (CR845-CR845, CR845-Placebo, CR845-None)
  Patients' overall evaluation of pain relief as excellent: highest percentage of patients
[3]; one dose of CR845, before or after surgery, first 24 hours, FIG. 2
  Reduction in pain SPID scores: intermediate level of reduction
[3]; one dose of CR845, before or after surgery, first 24 hours, FIG. 3
  Reduction in pain PID scores: intermediate level of reduction
[3]; two doses of CR845, intervals 2-4, 4-12 and 12-24 hours post surgery, FIG. 4
  Morphine self-administered by the patients: least morphine
